Laboratory results as given in paper PMC12573178, “Substrate-Guided Development of HDAC11-Selective Inhibitors Featuring α‑Amino Amide Zinc-Binding Groups” (ACS Omega, 2025).
Entries after “also recorded” stand apart in the source; their conditions may differ.

What was measured:
[1] = Compound stability in human serum; assay type: in vitro ADME; conditions: 37 °C, 150 μM 31, after 24 h
Protocol: (§1) H Stability and permeability of 31 […]
(§2) stability was performed as described 21. Briefly, 400 µl of human serum or cell lysate from HEK293 cells (1 mg/ml) were incubated at 37 °C with 150 μM of 31 with 5% (v/v) DMSO. Samples of 45 µl were taken out at different time points and quenched with 50 µl of aqueous urea (6 M) and 100 µl of ACN.
(§3) Following centrifugation, 2 µl of a 2% (m/v) K 2CO3 solution in H2O and 1.5 µl of a 0.2 M Fmoc-OSu in ACN were added to the samples, which were then shaken at 1000 rpm for two hours at room temperature. This enabled the quantification of the residual amount of the compound via UPLC-UV/VIS at 260 nm. Compound peak areas were integrated. The experiments were performed in triplicate.
(§4) After 24h, 7% of 31 remained […]
(§5) detectable in cell lysate, and 20 % of 31 were still present in human serum (Figure S 38). […]
(§6) shown as mean values relative to the peak intensity at 0 h. Error bars represent the SD of three replicates.
(§7) For cell permeability studies, 40 µM of 31 were incubated with HEK293 cells in DMEM medium supplemented with 10 % FCS at 37°C overnight. The cells were harvested, washed extensively with ice-cold PBS and lysed in RIPA buffer. The sample was diluted 1:1 (v/v) with a solution of ACN : H 2O (1:1 )) before analyzing via UPLC-MS. […]

[2] = Compound stability in HEK293 cell lysate; assay type: in vitro ADME; conditions: HEK293 cell lysate (1 mg/ml), 37 °C, 150 μM 31, after 24 h
Protocol: as §1, §2, §3, §4, §5, §6, §7

[3] = tested on: HEK293 cells; assay: Metabolic labeling with Alk-14, CuAAC with Cy3-azide, in-gel fluorescence (global fatty-acylation level); assay type: cell-based; conditions: Alk-14 25 μM, 31 20 μM, 24 h
[4] = tested on: HEK293 cells; assay: Cell permeability / uptake, UPLC-MS of cell lysate; assay type: cell-based; conditions: 40 µM 31, 37 °C overnight, detected by mass spectrometry in cell lysate
Protocol: as §1, §2, §3, §4, §5, §6, §7
B Mass spectrum of the peak detected at 3.62 […]

compound remaining [1]: 20% | compound remaining [2]: 7%
Structure (SMILES): CCCCCCCCCCCCSC[C@@H](N)C(=O)NCCCC[C@@H]1NC(=O)[C@H](CCC(N)=O)NC1=O [Compound 31]
In-gel fluorescence signal (protein fatty acylation) [3]: moderately increased the fluorescence signal | Uptake by HEK293 cells [4]: uptake of compound 31 by HEK293 cells; also recorded: showed uptake by HEK293 cells
